Source: US20240270741A1 (Cogent Biosciences, Inc., priority 2023, published 2024)

These compounds were tested against FGFR2 (Homo sapiens, UniProt P21802) (assay: FGFR wild type enzyme assay (HTRF KinEASE-TK), FGFR2). Settings: Enz FGFR2 (nM), FGFR2 wild type enzyme.
FGFR2, sequence (P21802 399-821 limits assumed): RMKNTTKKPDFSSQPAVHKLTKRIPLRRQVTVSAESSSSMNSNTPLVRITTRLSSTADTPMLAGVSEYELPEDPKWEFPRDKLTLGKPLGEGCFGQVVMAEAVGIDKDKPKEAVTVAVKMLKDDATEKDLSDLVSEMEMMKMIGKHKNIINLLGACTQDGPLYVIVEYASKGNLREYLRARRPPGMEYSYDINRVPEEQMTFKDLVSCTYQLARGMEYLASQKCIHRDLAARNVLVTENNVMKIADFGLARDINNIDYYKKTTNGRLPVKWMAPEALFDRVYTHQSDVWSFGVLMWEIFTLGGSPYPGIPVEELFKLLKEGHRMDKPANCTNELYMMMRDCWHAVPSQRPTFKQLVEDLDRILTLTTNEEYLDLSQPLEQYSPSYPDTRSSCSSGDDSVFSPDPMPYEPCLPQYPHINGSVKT
An IC50 of 1.4 nM was found for `Cc1c(-c2cc(Sc3ncccc3F)c3c(C#N)cnn3c2)cnn1C1CCN(CC(=O)N(C)C)CC1` [Example 195, 2-(4-(4-(3-cyano-4-((3-fluoropyridin-2-yl)thio)pyrazolo[1,5-a]pyridin-6-yl)-5-methyl-1H-pyrazol-1-yl)piperidin-1-yl)-N,N-dimethylacetamide] in this work.
An IC50 of 1 nM was found for `Cc1c(-c2cc(Sc3ncccc3F)c3c(C#N)cnn3c2)cnn1C1CCN(C(=O)[C@@H]2C[C@@H](F)CN2C)CC1` [Example 196, 6-(1-(1-((2S,4R)-4-fluoro-1-methylpyrrolidine-2-carbonyl)piperidin-4-yl)-5-methyl-1H-pyrazol-4-yl)-4-((3-fluoropyridin-2-yl)thio)pyrazolo[1,5-a]pyridine-3-carbonitrile] in this work.
An IC50 of 3 nM was found for `Cc1c(-c2cc(Sc3ncccc3F)c3c(C#N)cnn3c2)cnn1[C@H](C)[C@H](O)CO` [Example 197, 6-(1-((2R,3S)-3,4-dihydroxybutan-2-yl)-5-methyl-1H-pyrazol-4-yl)-4-((3-fluoropyridin-2-yl)thio)pyrazolo[1,5-a]pyridine-3-carbonitrile] in this work.
An IC50 of 21 nM was found for `Cc1c(-c2cc(Sc3ncccc3F)c3c(C#N)cnn3c2)cnn1[C@@H](C)[C@H](O)CO` [Example 198, 6-(1-((2S,3S)-3,4-dihydroxybutan-2-yl)-5-methyl-1H-pyrazol-4-yl)-4-((3-fluoropyridin-2-yl)thio)pyrazolo[1,5-a]pyridine-3-carbonitrile] in this work.
An IC50 of 1 nM was found for `Cc1c(-c2cc(Sc3ccccc3C#N)c3c(C#N)cnn3c2)cnn1C1CC2CCC(C1)N2C` (stereo not drawn) [Example 199, 4-((2-cyanophenyl)thio)-6-(5-methyl-1-(8-methyl-8-azabicyclo[3.2.1]octan-3-yl)-1H-pyrazol-4 yl)pyrazolo[1,5-a]pyridine-3-carbonitrile] in this work.
An IC50 of 1 nM was found for `Cc1c(-c2cc(Sc3ccccc3C#N)c3c(C#N)cnn3c2)cnn1CC1CCNCC1` [Example 200, 4-((2-cyanophenyl)thio)-6-(5-methyl-1-(piperidin-4-ylmethyl)-1H-pyrazol-4-yl)pyrazolo[1,5-a]pyridine-3-carbonitrile] in this work.
An IC50 of 2 nM was found for `Cc1c(-c2cc(Sc3ccccc3C#N)c3c(C#N)cnn3c2)cnn1C[C@H]1CCCNC1` [Example 201, (S)-4-((2-cyanophenyl)thio)-6-(5-methyl-1-(piperidin-3-ylmethyl)-1H-pyrazol-4-yl)pyrazolo[1,5-a]pyridine-3-carbonitrile] in this work.
An IC50 of 2 nM was found for `CC(=O)N1CCC[C@H](Cn2ncc(-c3cc(Sc4ccccc4C#N)c4c(C#N)cnn4c3)c2C)C1` [Example 202, (S)-6-(1-((1-acetylpiperidin-3-yl)methyl)-5-methyl-1H-pyrazol-4-yl)-4-((2-cyanophenyl)thio)pyrazolo [1,5-a]pyridine-3-carbonitrile] in this work.
An IC50 of 2 nM was found for `Cc1c(-c2cc(Sc3ncccc3F)c3c(C#N)cnn3c2)cnn1C1CC2CCC(C1)N2` (stereo not drawn) [Example 203, 4-[(3-fluoro-2-pyridiyl)sulfonyl]-6-[1-[1-(1-prop-2-enoylazetidine-3-carbonyl)-4-piperidyl]pyrazol-4-yl]pyrazolo[1,5-a]pyridine-3-carbonitrile] in this work.
An IC50 of 2 nM was found for `CC(=O)N1C2CCC1CC(n1ncc(-c3cc(Sc4ncccc4F)c4c(C#N)cnn4c3)c1C)C2` (stereo not drawn) [Example 204, 6-(1-(8-acetyl-8-azabicyclo[3.2.1]octan-3-yl)-5-methyl-1H-pyrazol-4-yl)-4-((3-fluoropyridin-2-yl)thio)pyrazolo[1,5-a]pyridine-3-carbonitrile] in this work.
An IC50 of 3 nM was found for `CC(=O)N1CCC(Cn2ncc(-c3cc(Sc4ncccc4F)c4c(C#N)cnn4c3)c2C)CC1` [Example 205, 6-(1-((1-acetylpiperidin-4-yl)methyl)-5-methyl-1H-pyrazol-4-yl)-4-((3-fluoropyridin-2-yl)thio)pyrazolo[1,5-a]pyridine-3-carbonitrile] in this work.
An IC50 of 3 nM was found for `Cc1c(-c2cc(Sc3ncccc3F)c3c(C#N)cnn3c2)cnn1C[C@H]1CCCNC1` [Example 206, (S)-4-((3-fluoropyridin-2-yl)thio)-6-(5-methyl-1-(piperidin-3-ylmethyl)-1H-pyrazol-4-yl)pyrazolo[1,5-a]pyridine-3-carbonitrile] in this work.
